Where a name gives a salt, the structure may show the parent alone.
Test system: C57BL/6 mice
Assay: animal or person
Type: in vivo
Conditions: Mus musculus, sc, 0.5 h, s.c. administration, 30 min, 55° C. water, read-out: ED50 (mg/kg) at 30 min on C57BL/6 mice in Warm-water Tail-flick Test

Structure (SMILES) | ED50
CCOC[C@@]1(CCc2nncn2C)CCN(C(=O)c2ccc(C)nc2)C1 [Compound 382] | > 10 mg/kg
CCOCC1(CCc2ccccc2)CCN(C(C)c2cccnc2)CC1 (stereo not drawn) [Compound 327, 3-(1-(4-(ethoxymethyl)-4-phenethylpiperidin-1-yl)ethyl)pyridine] | < 10 mg/kg
CC(=O)Nc1ccc(CN2CCC(CCc3ccccc3)(c3nncs3)CC2)cc1 [Compound 8] | > 10 mg/kg
CCCOCC1(CCc2ccccc2)CCN(Cc2ccc(NC(C)=O)cc2)CC1 [Compound 93, N-(4-((4-phenethyl-4-(propoxy-methyl)piperidin-1-yl)methyl)phenyl)acetamide] | > 10 mg/kg
CCOCC1(CCc2ccccc2)CCN(CC2CCC(NC(C)=O)CC2)CC1.Cl (stereo not drawn) [Compound 121, N-(4-((4-(ethoxymethyl)-4-phenethylpiperidin-1-yl)methyl)cyclo-hexyl)acetamide HCl] | > 10 mg/kg
CCOCC1(CCc2ccccc2)CCN(Cc2cccnc2)C1 (stereo not drawn) [Compound 249, 3-((3-(ethoxymethyl)-3-phenethylpyrrolidin-1-yl)methyl)pyridine] | < 10 mg/kg
CCOCC1(CCc2ccccc2)CCN(Cc2ccc3[nH]cnc3c2)CC1 [Compound 112, 5-((4-(ethoxymethyl)-4-phenethylpiperidin-1-yl)methyl)-1H-benzo[d]imidazole] | > 10 mg/kg
COc1ccc(C2(CCc3ccccc3)CCN(Cc3ccc(NC(C)=O)cc3)CC2)nc1 [Compound 38, N-(4-((4-(5-methoxypyridin-2-yl)-4-phenethylpiperidin-1-yl)methyl)phenyl)acetamide] | > 10 mg/kg
COCCC1(CCc2ccccc2)CCN(Cc2ccc(NC(C)=O)cc2)CC1.Cl [Compound 76, N-(4-((4-(2-methoxyethyl)-4-phenethylpiperidin-1-yl)methyl)phenyl)acetamide HCl] | > 10 mg/kg
CC(=O)Nc1ccc(CN2CCC(CCc3ccccc3)(C3C=CC(C)O3)CC2)cc1 (stereo not drawn) [Compound 175, N-(4-((4-(5-methyl-2,5-dihydrofuran-2-yl)-4-phenethylpiperidin-1-yl)methyl)phenyl)acetamide] | < 10 mg/kg
CCOCC1(CCc2ccccc2)CCN(Cc2ccc(CC(=O)O)cc2)CC1 [Compound 142, 2-(4-((4-(ethoxymethyl)-4-phenethylpiperidin-1-yl)methyl)phenyl)acetic acid] | > 10 mg/kg
CCOC[C@@]1(CCc2cccs2)CCN(Cc2ccc(OC)nc2)C1.Cl [Compound 452, (S)-5-((3-(ethoxymethyl)-3-(2-(thiophen-2-yl)ethyl)pyrrolidin-1-yl)methyl)-2-methoxypyridine HCl] | < 10 mg/kg
CCOC1(CCc2cccs2)CCN(Cc2cccnc2)C1 (stereo not drawn) [Compound 393, 3-((3-ethoxy-3-(2-(thiophen-2-yl)ethyl)pyrrolidin-1-yl)methyl)pyridine] | > 10 mg/kg
CCOCC1(CCc2ccccc2)CCN(Cc2ccc(B3OC(C)(C)C(C)(C)O3)cc2)CC1 [Compound 152, 4-(ethoxymethyl)-4-phenethyl-1-(4-(4,4,5,5-tetramethyl-1,3,2-dioxaborolan-2-yl)benzyl)piperidine] | > 10 mg/kg
c1ccc(CCC2(C3CCCO3)CCN(Cc3cn[nH]c3)C2)cc1 (stereo not drawn) [Compound 212, 4-((3-phenethyl-3-(tetrahydrofuran-2-yl)pyrrolidin-1-yl)methyl)-1H-pyrazole] | > 10 mg/kg
c1ccc(CCC2(C3CCCO3)CCN(Cc3ccccc3-c3cccs3)C2)cc1 (stereo not drawn) [Compound 194, 3-phenethyl-3-(tetrahydrofuran-2-yl)-1-(2-(thiophen-2-yl)benzyl)pyrrolidine] | > 10 mg/kg
CNC(=O)C1(CCc2ccccc2)CCN(Cc2ccc(NC(C)=O)cc2)CC1 [Compound 65] | > 10 mg/kg

Structure (SMILES) | ED50
CCOC[C@@]1(CCc2ccccc2)CCN(Cc2ccc(C)nc2C)C1 [Compound 307, (S)-3-((3-(ethoxymethyl)-3-phenethylpyrrolidin-1-yl)methyl)-2,6-dimethylpyridine] | < 10 mg/kg
C[C@H](O)[C@@]1(CCc2cccs2)CCN(Cc2cccnc2)C1 (single isomer, unassigned) [Compound 423] | < 10 mg/kg
Oc1ccc(CN2CCC(CCc3ccccc3)(c3ccccn3)CC2)cc1 [Compound 61, 4-((4-phenethyl-4-(pyridin-2-yl)piperidin-1-yl)methyl)phenol] | > 10 mg/kg
Cc1ccc(C(C)(C)N2CC[C@@](CO)(CCc3cc[nH]c(=O)c3)C2)cn1.Cl [Compound 368, (S)-4-(2-(3-(hydroxymethyl)-1-(2-(6-methylpyridin-3-yl)propan-2-yl)pyrrolidin-3-yl)ethyl)pyridin-2(1H)-one HCl] | < 10 mg/kg
CC(=O)Nc1ccc(CN2CCC(CCc3ccccc3)(C3(C)CC=CCO3)CC2)cc1.Cl (stereo not drawn) [Compound 164, N-(4-((4-(2-methyl-3,6-dihydro-2H-pyran-2-yl)-4-phenethylpiperidin-1-yl)methyl)phenyl)acetamide HCl] | > 10 mg/kg
CC(=O)Nc1ccc(CN2CCC(CCc3ccccc3)(CN(C)C(C)=O)CC2)cc1 [Compound 57, N-((1-(4-acetamidobenzyl)-4-phenethylpiperidin-4-yl)methyl)-N-methylacetamide] | > 10 mg/kg
CCOCC1(CCc2cccs2)CCN(Cc2cnn(C(C)C)c2)CC1 [Compound 270, 4-(ethoxymethyl)-1-((1-isopropyl-1H-pyrazol-4-yl)methyl)-4-(2-(thiophen-2-yl)ethyl)piperidine HCl] | > 10 mg/kg
Cn1ccc(CN2CCC(CCc3ccccc3)(C3CCCO3)C2)c1 (stereo not drawn) [Compound 224, 1-methyl-3-((3-phenethyl-3-(tetrahydrofuran-2-yl)pyrrolidin-1-yl)methyl)-1H-pyrrole] | > 10 mg/kg
CCOCC1(CCc2ccsc2)CCN(Cc2cnn(C)c2)C1 (stereo not drawn) [Compound 250, 4-((3-(ethoxymethyl)-3-(2-(thiophen-3-yl)ethyl)pyrrolidin-l-yl)methyl)-1-methyl-1H-pyrazole] | < 10 mg/kg
CCOCC1(CCc2ccccc2)CCN(Cc2ccc(CC(C)O)cc2)CC1 (stereo not drawn) [Compound 163, 1-(4-((4-(ethoxymethyl)-4-phenethylpiperidin-1-yl)methyl)phenyl)propan-2-ol] | > 10 mg/kg
CCOCC1(CCc2csc3ccccc23)CCN(Cc2ccc(C)nc2)C1 (stereo not drawn) [Compound 302, 5-((3-(2-(benzo[b]thiophen-3-yl)ethyl)-3-(ethoxy-methyl)pyrrolidin-1-yl)methyl)-2-methylpyridine] | < 10 mg/kg
CCOCC1(OCc2ccccc2)CCN(Cc2ccc(NC(C)=O)cc2)CC1 [Compound 122, N-(4-((4-(benzyloxy)-4-(ethoxymethyl)piperidin-1-yl)methyl)phenyl)acetamide] | > 10 mg/kg
CCOCC1(CCc2ccccc2)CN(CCc2ccc(NC(C)=O)cc2)C1 [Compound 99, N-(4-(2-(3-(ethoxymethyl)-3-phenethylazetidin-1-yl)ethyl)phenyl)acetamide] | > 10 mg/kg
CCOC[C@@]1(CCc2ccc(F)s2)CCN(Cc2ccc(C)nc2)C1 [Compound 344] | < 10 mg/kg
CCOC[C@@]1(CCc2ccc(C)s2)CCN(Cc2cccnc2)C1 [Compound 463, (S)-3-((3-(ethoxymethyl)-3-(2-(5-methylthiophen-2-yl)ethyl)pyrrolidin-1-yl)methyl)pyridine] | < 10 mg/kg
CCOCC1(CCc2cc(C)cs2)CCN(Cc2cccnc2)C1 (stereo not drawn) [Compound 284, 3-((3-(ethoxymethyl)-3-(2-(4-methylthiophen-2-yl)ethyl)pyrrolidin-1-yl)methyl)pyridine] | < 10 mg/kg
